Test results as given in patent publication US20100113436A1, “DISPIRO TETRAOXANE COMPOUNDS AND THEIR USE IN THE TREATMENT OF MALARIA AND/OR CANCER” (priority 2006, published 2010).
≈ marks a conversion by molar mass, not a printed value. Where “and” joins values, the source holds several entries; their conditions need not be identical. Equal values may be shown once. Read-outs that look alike come from different tables or passages of the source. Marks after values point to notes of the source that are not given here.

Key:
[1] = test system: 3D7 strain of Plasmodium falciparum; test: In vitro antimalarial activity, 48-h [3H]-hypoxanthine incorporation assay; type: cell-based
Experimental: The 3D7 strain of Plasmodium falciparum was used in this study. This strain is known to be […] Parasites were maintained in continuous culture using the method of Jensen and Trager^4. […] Stock drug solutions were prepared in 100% dimethylsulphoxide (DMSO) and diluted to the appropriate concentration using complete medium. Assays were performed in sterile 96-well microlitre plates, each plate contained 200 μl of parasite culture (2% parasitemia, 0.5% haematocrit) with or without 10 μl drug dilutions. Each drug was tested in triplicate and parasite growth compared to control wells (which constituted 100% parasite growth). […] IC50 values were calculated by interpolation of the probit transformation of the log dose-response curve.

Plasmodium yoelli = test: 4-day Peter's suppressive test; type: in vivo; conditions: 4-day Peter's test, mice
Experimental: Selections of the compounds were screened for in vivo activity. In vivo data (Table 6) was determined using 30 mg/kg oral (po) and subcutaneous (sc) doses in a 4-days Peter's test. For subcutaneous administration, compounds were dissolved in 10% dimethylsulfoxide (DMSO) 0.05% Tween 80 (Sigma, Dorset, UK) in distilled water. For oral administration, compounds were dissolved in standard suspending formula (SSV) [0.5% sodium carboxymethylcellulose, 0.5% benzyl alcohol, 0.4% Tween 80, 0.9% NaCl (all Sigma)]. Subcutaneous (s.c) or oral (p.o) treatment was done with 0.2 ml of a solution of the test compound two hours (day 0) and on days 1, 2, and 3 post infections. Parasitaemia was determined by microscopic examination of Giemsa stained blood films taken on day 4. Microscopic counts of blood films from each mouse were processed using MICROSOFT@EXCELL spreadsheet (Microsoft Corp.) and expressed as percentage of inhibition from the arithmetic mean parasitaemias of each group in relation to the untreated group.

P. berghei ANKA [2] = test: In vivo dose response screening against P. berghei ANKA; parameters: species or system mice; conditions: Chloroquine Resistant Strains of the P. Berghei ANKA, Table 7; for ED50: Plasmodium berghei, in Mus musculus
Experimental: Compound 29c, 29h and 291 were then subjected to dose response experiment against the P. berghei ANKA and the results are summarized in Table 7 below.

Vero Kidney = test: Cellular cytotoxicity screen, Resazurin reduction; type: cell-based, African green monkey, Cercopithecus aethiops
From the text: (§1) Values represent Tox 50 in μM. Cytotoxicity measured by Resazurin reduction.
(§2) Single full dose response curves generated using 10 independent drug concentrations. The 100 therapeutic index (TI) is the ration of the TOX 50 to the IC50 for the specific compound against the 3D7 P. falciparum isolate. The primary hepatocytes have demonstrable drug metabolising activity. The tetraoxane derivatives are remarkably non-toxic in these screens with in vitro TIs of between 5000 to 17000!.

[3] = test system: MRC-5 Embryonal lung, diploid; test: Cellular cytotoxicity screen, Resazurin reduction; type: cell-based, Human
From the text: as §1, §2

[4] = test system: L6 Sketal muscle myoblast; test: Cellular cytotoxicity screen, Resazurin reduction; type: cell-based, rat
From the text: as §1, §2

[5] = test system: H9c2(2-1) Myocardium, heart; test: Cellular cytotoxicity screen, Resazurin reduction; type: cell-based, rat; conditions: H9c(2-1)
From the text: as §1, §2

[6] = test system: HepG2 Human hepatocyte carcinoma; test: Cellular cytotoxicity screen, Resazurin reduction; type: cell-based; conditions: Hep2G
From the text: as §1, §2

[7] = test system: Plasmodium falciparum PH3; test: In vitro analysis versus strains of Plasmodium falciparum: PH3; type: cell-based
P. berghei ANKA [8] = test: In vivo dose response screening against P. berghei ANKA; conditions: P. berghei ANKA infected mice, Table 9
[9] = Timed iron degradation stability, FeBr2 in THF; type: physicochemical; conditions: ferrous bromide/THF
From the text: The resulting residue was purified by flash column chromatography and the % recovery of starting endoperoxide calculated (Table 15).

[10] = test system: Salmonella typhimurium TA1535/pSK1002; test: Salmonella typhimurium SOS/umu genotoxicity assay
From the text: (§3) This assay is based on the ability of DNA damaging agents to induce the expression of the umu operon. The Salmonella strains have a plasmid pSK1002 which carries an umuC-lacZ fused gene that produces a hybrid protein with β-galactosidase activity and whose expression is controlled by the umu regulatory region.

[11] = test system: Salmonella typhimurium NM2009; test: Salmonella typhimurium SOS/umu genotoxicity assay
From the text: as §3

[12] = 3D7, 3D7 strain, mean of triplicate results, Table 5, read-out: Mean IC50

## O=C(CC1CCC2(CC1)OOC1(OO2)C2CC3CC(C2)CC1C3)NC1CC1 (stereo not drawn) [Tetraoxane 29c, Adamantyl-N-Cyclopropyl tetraoxane acetamide]
[1]; [12]
  IC50: 2.3 nM
Plasmodium yoelli
  Percentage of inhibition at 30 mg/kg (p.o): 100%
other
  melting point: 140 to 142 °C
P. berghei ANKA [2]
  ED90: 20.33 mg/kg
  ED50: 10.3 mg/kg

## CO[C@H]1O[C@@H]2O[C@@]3(C)CC[C@H]4[C@H](C)CC[C@@H]([C@H]1C)[C@@]24OO3 [Artemether, artemether, reference compound]
[1]; [12]
  IC50: 1.7 nM
[1]; 3D7, sulfonamide dispiro 1,2,4,5-tetraoxanes, Table 8, read-out: Mean IC50
  IC50: 3.2 nM
Plasmodium yoelli
  Percentage of inhibition at 30 mg/kg (p.o): 100%
P. berghei ANKA [2]
  ED90: 10.57 mg/kg
  ED50: 5.88 mg/kg

## COc1cccc2c1C(=O)c1c(O)c3c(c(O)c1C2=O)C[C@@](O)(C(=O)CO)C[C@@H]3O[C@H]1C[C@H](N)[C@H](O)[C@H](C)O1 [Doxorubicin]
Vero Kidney
  Tox 50: >5 µM
[3]
  Tox 50: 2 µM
[4]
  Tox 50: >5 µM
[5]
  Tox 50: 3 µM
[6]
  Tox 50: 0.3 µM

## C[C@H]1[C@H](OC(=O)CCC(=O)O)O[C@@H]2O[C@@]3(C)CC[C@H]4[C@H](C)CC[C@@H]1[C@@]24OO3 [Artesunate, artesunate]
[7]
  IC50: 0.9 nM
Plasmodium yoelli
  Percentage of inhibition at 30 mg/kg (p.o): 100%
P. berghei ANKA [8]
  ED50: 2.90 mg/kg
P. berghei ANKA [8]; sigmoidal curve calculation
  ED90: 17.78 mg/kg and 16.67 mg/kg
P. berghei ANKA [8]; Plasmodium berghei, in Mus musculus
  ED50: 3.2 mg/kg

## O=C(CC1CCC2(CC1)OOC1(OO2)C2CC3CC(C2)CC1C3)N1CCS(=O)(=O)CC1 (stereo not drawn) [Tetraoxane 32, 1-(1,1-Dioxo-1λ^6-thiommpholin-4-yl)-2-tetraoxa-dispiro-adamantyl ethanone]
[1]; [12]
  IC50: 24.2 nM
other
  melting point: 189 to 191 °C

## O=S(=O)(c1ccccc1)N1CCC2(CC1)OOC1(O2)C2CC3CC(C2)CC1C3 (stereo not drawn) [Tetraoxane 42]
[9]; after 4 h
  degradation: ~90%
[9]; after 48 h
  turnover: 100%

## O=C(CC1CCC2(CC1)OOC1(CCCCCCCCCCC1)OO2)NC1CC1 [Tetraoxane 28c, N-Cyclopropyl-2-(7,8,21,22-tetraoxa-dispiro[5.2.11.2]docos-3-yl)-acet-amide]
[1]; [12]
  IC50: 18.7 nM
other
  melting point: 136 to 138 °C

## Nc1ccc2cc3ccccc3cc2c1 [Tetraoxane 2Aan, 2-Aminoanthracene, reference compound]
[10]; positive controls
  MCE TA1535 (Maximum Co w/o effects on bacteria growth or β-galactosidase production): 5 µg/mL
[10]; −S9
  Max. Fold Increase: 1.10 ± 0.11 fold
  Potential genotox: NEG
[11]; in the presence of rat S9
  MCE NM2009 (Maximum Co w/o effects on bacteria growth or beta-galactosidase production): 0.31* μg/mL
[11]; −S9
  Max. Fold Increase: 1.08 ± 0.01 fold
  Potential genotox: NEG
physchem
  solubility: 5 µg/mL (≈ 25.9 µM)
